System: primary cultures of neonatal cortical neurons exposed to 5 μM Aβ25-35
Assay: Protection of cortical neurons against Aβ25-35-induced cell death (MTT reduction analysis)
Assay type: cell-based, rat
Conditions: for protected neurons from Aβ damage by: 5 μM Aβ; for cell death (%): then 5 μM Aβ25-35 for 40 h, MTT, mean ± S.D., three experiments
Description: In this study, primary cultures of neonatal cortical neurons from the cerebral cortex of Harlan Sprague-Dawley rat pups at postnatal day were used as target cells. Primary cultures of neonatal cortical neurons were prepared from the cerebral cortex of Harlan Sprague-Dawley rat pups at postnatal day 1. Briefly, each pup was decapitated and the cortex was digested in 0.5 mg/mL papain at 37° C. for 15 min. The tissue was dissociated in Hibernate A medium (containing B27 supplement) by aspirating trituration to separate cells. Cells were plated (at the density of 5×10^4 cells/cm^2) onto poly-D-lysine-coated dishes and maintained in Neurobasal medium containing B27 supplement, 10 units/mL penicillin, […], and 0.5 mg/mL glutamine (5% CO2/9% O2) for 3 days. Cells were then exposed to cytosine-β-D-arabinofuranoside (5 μM) for 1 day to inhibit proliferation of non-neuronal cells. The cells were used for the experiment on the fifth day.
The effects of isolated pure compounds on Aβ25-35-treated cell apoptosis were determined by a MTT method for evaluating neuroprotective activity. The mitochondrial dehydrogenase activity was assayed by reduction cleavage of the tetrazolium salt MTT (3-[4,5-dimethylthiazol-2-yl]-2,5-diphenyltetrazolium bromide), to yield a purple dye with absorbance read at about 570 nm. Results are expressed as percentage of control absorbance. Cortical neurons prepared as described above were incubated with vehicle (0.1% DMSO) or various concentrations of the compounds for 2 h then exposed to 5 μM Aβ for 40 h. The cell viability was assessed by MTT reduction analysis. Cells were incubated with minimum essential medium containing 0.5 mg/mL MTT for 1 h. The medium was aspirated, and the formazan particle was dissolved with DMSO. The absorbance at 600 nm was measured using an enzyme-linked immunosorbent assay reader. Results are expressed as means±S.D. and were analyzed by ANOVA with post hoc multiple comparison with a Bonferroni test.

C=C1CCC2[C@@](C)(CO)CCC[C@]2(C)[C@H]1CCC1CCOC1=O (some centres unmarked) [Compound 1, 19-hydroxylabda-8(17)-en-16,15-olide]
protected neurons from Aβ damage by (at concentration of 5 μM): 25.3% | cell death (%) (compound 1 μM for 2 h): 34.4 ± 3.4% | cell death (%) (compound 5 μM for 2 h): 25.3 ± 5.7 % | cell death (%) (compound 10 μM for 2 h): 28.1 ± 5.7 % | cell death (%) (compound 20 μM for 2 h): 30.8 ± 5.0 %

C=C1CC[C@@H]2[C@](C)(CC[C@H](O)[C@]2(C)CO)[C@H]1/C=C/[C@@H]1CCOC1=O [Compound 2, 3β,19-dihydroxylabda-8(17), 11E-dien-16,15-olide]
protected neurons from Aβ damage by (at concentration of 10 μM): 29.5% | cell death (%) (compound 1 μM for 2 h): 43.8 ± 9.5% | cell death (%) (compound 5 μM for 2 h): 34.9 ± 2.6% | cell death (%) (compound 10 μM for 2 h): 29.5 ± 6.4 % | cell death (%) (compound 20 μM for 2 h): 26.3 ± 9.4 %

C=C1CC[C@@H]2[C@](C)(CC[C@H](O)[C@]2(C)CO)[C@H]1/C=C/C1CCOC1=O (stereo partly drawn) [Compound 3, 13-epi-3β,19-dihydroxylabda-8(17), 11E-dien-16,15-olide]
protected neurons from Aβ damage by (at concentration of 10 μM): 36.7% | cell death (%) (compound 1 μM for 2 h): 45.1 ± 3.5% | cell death (%) (compound 5 μM for 2 h): 39.6 ± 3.4% | cell death (%) (compound 10 μM for 2 h): 36.7 ± 8.7% | cell death (%) (compound 20 μM for 2 h): 29.3 ± 10.6 %

C=C1CC[C@H]2[C@@](C)(CO)CCC[C@]2(C)[C@H]1CCC1=CCOC1=O [Compound 4, 19-hydroxylabda-8(17),13-dien-16,15-olide]
protected neurons from Aβ damage by (at concentration of 10 μM): 28.9% | cell death (%) (compound 1 μM for 2 h): 41.2 ± 3.4% | cell death (%) (compound 5 μM for 2 h): 34.8 ± 3.2% | cell death (%) (compound 10 μM for 2 h): 28.9 ± 8.1 % | cell death (%) (compound 20 μM for 2 h): 32.6 ± 7.2 %

C=C1CCC2C(C)(CO)C(O)CCC2(C)C1C=CC1=CCOC1=O (centres unmarked) [Compound 5, 14-deoxy-11,12-didehydroandrographolide]
protected neurons from Aβ damage by (at concentration of 20 μM): 29.5% | cell death (%) (compound 1 μM for 2 h): 40.7 ± 3.3% | cell death (%) (compound 5 μM for 2 h): 35.7 ± 1.9% | cell death (%) (compound 10 μM for 2 h): 30.8 ± 5.7 % | cell death (%) (compound 20 μM for 2 h): 29.5 ± 5.0 %

Ac-DEVD-CHO [reference compound]
cell death (%) (compound 1 μM for 2 h): 35.8 ± 3.5% | cell death (%) (compound 5 μM for 2 h): 30.2 ± 5.5 % | cell death (%) (compound 10 μM for 2 h): 24.5 ± 4.6 % | cell death (%) (compound 20 μM for 2 h): 23.1 ± 1.6 %

From patent US7745647B2, “Diterpenes from the fruiting body of Antrodia camphorata and pharmaceutical compositions thereof” (Kang Jian Biotech Corp, Ltd., priority 2006, dated 2010)
